Laboratory results published in patent USRE47193E1, “Selectively substituted quinoline compounds” (EISAI R&D MANAGEMENT CO., LTD., priority 2013, dated 2019).
Where “and” joins values, the source holds several entries; their conditions need not be identical. Equal entries are not always repeated. Where two headings read alike, the source gives them in different places.

Target: T1, TLR9 (Homo sapiens, UniProt Q9NR96)
T1 sequence (Q9NR96 26-1032): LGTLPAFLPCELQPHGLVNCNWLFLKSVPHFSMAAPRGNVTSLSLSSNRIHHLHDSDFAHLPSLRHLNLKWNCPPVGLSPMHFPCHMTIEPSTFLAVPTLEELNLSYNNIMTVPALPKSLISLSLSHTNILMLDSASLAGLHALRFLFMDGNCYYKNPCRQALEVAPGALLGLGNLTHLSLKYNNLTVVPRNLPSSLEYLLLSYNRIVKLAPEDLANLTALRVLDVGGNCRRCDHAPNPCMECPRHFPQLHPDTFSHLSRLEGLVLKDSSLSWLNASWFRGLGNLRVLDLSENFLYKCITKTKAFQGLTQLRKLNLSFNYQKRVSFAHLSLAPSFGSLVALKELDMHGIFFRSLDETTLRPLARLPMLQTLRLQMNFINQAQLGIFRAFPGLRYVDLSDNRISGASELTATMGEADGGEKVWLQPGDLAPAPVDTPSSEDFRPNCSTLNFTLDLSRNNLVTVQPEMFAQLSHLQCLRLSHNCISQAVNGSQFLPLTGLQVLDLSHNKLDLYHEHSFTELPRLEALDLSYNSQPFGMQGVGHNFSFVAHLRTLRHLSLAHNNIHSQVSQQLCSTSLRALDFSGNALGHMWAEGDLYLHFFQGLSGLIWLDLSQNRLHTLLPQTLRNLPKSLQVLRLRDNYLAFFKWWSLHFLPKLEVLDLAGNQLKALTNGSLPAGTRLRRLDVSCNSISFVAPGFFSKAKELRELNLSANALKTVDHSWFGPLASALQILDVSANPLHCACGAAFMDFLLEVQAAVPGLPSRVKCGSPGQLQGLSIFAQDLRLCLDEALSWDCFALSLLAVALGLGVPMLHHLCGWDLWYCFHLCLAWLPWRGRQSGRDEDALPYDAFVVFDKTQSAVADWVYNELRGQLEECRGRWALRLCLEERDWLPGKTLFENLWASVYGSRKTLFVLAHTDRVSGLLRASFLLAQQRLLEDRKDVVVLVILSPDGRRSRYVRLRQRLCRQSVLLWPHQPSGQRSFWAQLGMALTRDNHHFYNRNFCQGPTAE
Assay: Subsequent human PBMC assay, DNA-mediated activation of TLR9, IL-6 and IFN-α
Format: cell-based
Description: Human PBMC Cell-Based Assay. Human peripheral blood mononuclear cells (PBMC) were isolated from freshly-drawn heparinized (10 USP units/ml, Hospira, Lakeforest, Ill.) healthy donor whole blood by density gradient (Histopaque® 1077, Sigma, Inc., St. Louis, Mo.). Briefly, 25 ml blood was diluted with 15 ml PBS (without Ca^2+, Mg^2+) in a 50 ml conical tube, and 12 ml Histopaque was underlaid using a spinal needle. Tubes were centrifuged for 45 minutes at 1200 rpm (350×g), and PBMC were collected from the buffy coat. Cells were then washed twice in PBS, and red blood cells were lysed by suspension in 5 ml ammonium chloride solution (1× Red Blood Cell Lysis Buffer, eBioscience) for 5 minutes at room temperature. After a final wash in PBS, PBMC were resuspended at a final concentration of 2×10^6/ml in RPMI-1640 media with L-glutamine (Invitrogen) and supplemented with 25 mM HEPES (Mediatech, Inc, Manassas Va.), 10% fetal bovine serum (HyClone, Logan, Utah), and Penicillin-Streptomycin-Glutamine (Mediatech) and plated at 100 ul/well (2×10^5 cells/well) in tissue culture treated 96-well plates (Falcon).
Antagonist compounds solubilized and serial diluted in 100% DMSO were added in triplicate to cells to yield a final concentration of 0.1% DMSO (v/v). Hydroxychloroquine (Acros Organics) solubilized and serial diluted in PBS was added in triplicate to cells. PBMC were incubated with antagonist compounds or HCQ for 30 minutes at 37° C., 5% CO2 before adding various TLR agonist reagents in 100 ul complete media per well as follows (final concentrations indicated): R848 (Resiquimod; GLSynthesis, Worcester, Mass.) at 1 uM for TLR7 and TLR8, LPS (Sigma) at 10 ng/ml for TLR4, and CpG-2216 (InvivoGen) at 5 ug/ml for TLR9. To prepare a TLR7/8 agonist that mimics RNA-containing auto-antibody immune complexes in lupus patients, a 26-mer RNA with a sequence derived from human U1 snRNA stem loop IV [(sequence: […]-[…] (SEQ ID NO: 2) with phosphorothioate backbone] was synthesized (Dharmacon, Inc., Lafayette, Colo.), which has been shown previously to be a potent TLR7 and TLR8 agonist. This RNA molecule was diluted to 2.5 μM in serum-free RPMI, and mouse anti-human single stranded DNA monoclonal antibody (MAB3034, Millipore, Inc., Billerica, Mass.), which also cross-reacts with RNA, was added at a 1:25 dilution or at 1 ug/ml. The resulting “RNA-Ig” stimulus was incubated at room temperature for 15-30 minutes before adding to cells. PBMC were incubated with the various TLR agonists for 20 hours at 37° C., 5% CO2. Cell culture supernatants were collected, and levels of various human cytokines were assessed as indicated by standard ELISA procedure according to the manufacturer's recommended protocol (BD Biosciences, Inc., San Diego, Calif.). In a subsequent assay (Table 6) the ability of ER-899742 to block stimulation of normal PBMC by various TLR7/8 ligands, but not DNA-mediated activation of TLR9, was examined. In this assay cells were plated at 1×10^5 cells/well in 100 ul in 96-well plates.

SMILES | IC50 (human PBMC, ligand ODN2006-DOTAP, average of donors, read-out: IC50 IFN-α Ave.) [nM] | IC50 (human PBMC, ligand ODN2006-DOTAP, average of donors, read-out: IC50 IL-6 Ave.) [nM] | IC50 (human PBMC, ligand ODN2006-DOTAP, individual donors, read-out: IC50 IFN-α) | IC50 (human PBMC, ligand ODN2006-DOTAP, individual donors, read-out: IC50 IL-6) | IC50 (human PBMC, ligand ODN2216-Ig, average of donors, read-out: IC50 IFN-α Ave.) [nM] | IC50 (human PBMC, ligand ODN2216-Ig, average of donors, read-out: IC50 IL-6 Ave.) [nM] | IC50 (human PBMC, ligand ODN2216-Ig, individual donors, read-out: IC50 IFN-α) | IC50 (IC50 IFN-α Ave., human PBMC, ligand ODN2006-DOTAP, average of donors) [nM] | IC50 (IC50 IFN-α Ave., human PBMC, ligand ODN2216-Ig, average of donors) [nM] | IC50 (IC50 IFN-α, human PBMC, ligand ODN2006-DOTAP, individual donors) [nM] | IC50 (IC50 IFN-α, human PBMC, ligand ODN2216-Ig, individual donors) [nM] | IC50 (IC50 IL-6, human PBMC, ligand ODN2006-DOTAP, individual donors) [nM] | IC50 (IC50 IL-6, human PBMC, ligand ODN2216-Ig, individual donors) [nM] | IC50 (IC50 IL-6 Ave., human PBMC, ligand ODN2006-DOTAP, average of donors) [nM] | IC50 (IC50 IL-6 Ave., human PBMC, ligand ODN2216-Ig, average of donors) [nM]
CCN(CCO)CCCC(C)Nc1ccnc2cc(Cl)ccc12 (stereo not drawn) [HCQ, hydroxychloroquine, reference compound] | 3020 | 1720 | 910 nM and 4100 nM and 3100 nM and 3960 nM | 1200 nM and 1240 nM and 1540 nM and 2400 nM and 1580 nM and 2370 nM | 290 | 2380 | 280 nM and 290 nM |  |  |  |  |  |  |  | 
C[C@@H]1CN(c2ccc(C#N)c3ncccc23)C[C@H](C(=O)N[C@H]2CNC[C@H]2F)O1.Cl [ER-899742, (2R,6R)-4-(8-cyanoquinolin-5-yl)-N-[(3S,4R)-4-fluoropyrrolidin-3-yl]-6-methylmorpholine-2-carboxamide hydrochloride] |  |  |  |  |  |  |  | > 10000 | > 10000 | > 10000 | > 10000 | > 10000 | > 10000 | > 10000 | > 10000
